ChEMBL document CHEMBL1629710, “Synthesis and biological evaluation of N-substituted-3,5-diphenyl-2-pyrazoline derivatives as cyclooxygenase (COX-2) inhibitors” (Eur J Med Chem, 2010)
pIC50: −log10 of the molar value. Calls of active or inactive are those of the source. The rule behind the calls is not given here.

Tests used:
[1] = molecular target: Prostaglandin G/H synthase 1 (Homo sapiens) (UniProt P23219); assay: Inhibition of human COX1 from platelet microsomes
[2] = molecular target: T1, Prostaglandin G/H synthase 2 (Homo sapiens) (UniProt P35354); assay: Inhibition of human recombinant COX2 expressed in baculovirus infected SF21 cell at 100 uM
T1 sequence (whole entry): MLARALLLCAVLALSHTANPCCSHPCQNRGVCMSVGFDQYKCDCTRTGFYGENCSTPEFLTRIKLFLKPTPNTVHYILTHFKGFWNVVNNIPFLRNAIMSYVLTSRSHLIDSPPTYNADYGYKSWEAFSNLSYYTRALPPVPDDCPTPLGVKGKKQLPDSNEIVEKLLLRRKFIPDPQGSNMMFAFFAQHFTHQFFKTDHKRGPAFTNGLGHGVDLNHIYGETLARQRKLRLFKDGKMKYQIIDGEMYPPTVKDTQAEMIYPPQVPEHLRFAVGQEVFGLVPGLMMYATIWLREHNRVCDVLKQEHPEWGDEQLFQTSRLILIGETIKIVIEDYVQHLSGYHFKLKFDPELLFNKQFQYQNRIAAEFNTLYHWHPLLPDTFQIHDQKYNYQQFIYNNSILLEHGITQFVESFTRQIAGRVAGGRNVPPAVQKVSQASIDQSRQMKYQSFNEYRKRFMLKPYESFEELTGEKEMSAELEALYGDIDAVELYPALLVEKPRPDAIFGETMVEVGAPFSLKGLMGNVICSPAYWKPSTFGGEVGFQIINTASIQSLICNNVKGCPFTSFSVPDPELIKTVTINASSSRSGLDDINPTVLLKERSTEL

[3] = molecular target: T2, Prostaglandin G/H synthase 2 (Homo sapiens, UniProt P35354); assay: Inhibition of human recombinant COX2 expressed in baculovirus infected SF21 cell; format: cell-based
T2 sequence (P35354 whole entry): T1 sequence (whole entry)

[4] = molecular target: T1, Prostaglandin G/H synthase 2 (Homo sapiens); assay: Inhibition of human recombinant COX2 expressed in baculovirus infected SF21 cell at 25 uM

Chain of Prostaglandin G/H synthase 1 (Homo sapiens) (P23219 whole entry): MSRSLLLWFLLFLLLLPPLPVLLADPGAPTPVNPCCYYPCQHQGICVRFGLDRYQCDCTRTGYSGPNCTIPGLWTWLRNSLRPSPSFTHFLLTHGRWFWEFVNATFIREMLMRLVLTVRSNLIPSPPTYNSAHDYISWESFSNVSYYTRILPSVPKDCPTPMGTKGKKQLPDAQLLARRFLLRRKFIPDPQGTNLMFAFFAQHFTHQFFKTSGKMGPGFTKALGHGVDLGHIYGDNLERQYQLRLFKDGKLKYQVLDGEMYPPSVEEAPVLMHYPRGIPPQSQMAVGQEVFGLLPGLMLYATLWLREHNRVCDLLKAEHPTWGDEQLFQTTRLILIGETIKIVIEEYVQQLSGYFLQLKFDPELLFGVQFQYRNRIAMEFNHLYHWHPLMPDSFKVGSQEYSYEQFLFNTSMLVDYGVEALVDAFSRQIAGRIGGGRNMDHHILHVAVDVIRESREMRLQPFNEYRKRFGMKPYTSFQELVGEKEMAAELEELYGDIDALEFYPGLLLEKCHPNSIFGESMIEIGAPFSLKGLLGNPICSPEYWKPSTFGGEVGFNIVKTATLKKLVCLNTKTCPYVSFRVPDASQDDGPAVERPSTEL

inhibition [1] | inhibition [2] | pIC50 [3] | inhibition [4] | Structure (SMILES)
inactive | inactive |  |  | CS(=O)(=O)c1ccc(C2=NN(C(N)=S)C(c3ccc(F)cc3)C2)cc1 (stereo unspecified)
inactive |  | 4.30 |  | CS(=O)(=O)c1ccc(C2=NN(C(N)=S)C(c3ccccc3)C2)cc1 (stereo unspecified)
inactive | inactive |  |  | CC(=O)N1N=C(c2ccc(S(C)(=O)=O)cc2)CC1c1ccc(OCc2ccccc2)cc1 (stereo unspecified)
inactive |  |  | inactive | CS(=O)(=O)c1ccc(C2=NN(C(N)=S)C(c3cccc(OCc4ccccc4)c3)C2)cc1 (stereo unspecified)
inactive |  |  | inactive | COc1ccc(C2CC(c3ccc(S(C)(=O)=O)cc3)=NN2C(N)=S)cc1 (stereo unspecified)
inactive |  | 4.66 |  | CC(=O)N1N=C(c2ccc(S(C)(=O)=O)cc2)CC1c1ccc(Cl)cc1 (stereo unspecified)
inactive | inactive |  |  | CC(=O)N1N=C(c2ccc(S(C)(=O)=O)cc2)CC1c1ccccc1 (stereo unspecified)
inactive |  |  | inactive | CS(=O)(=O)c1ccc(C2=NN(C(N)=S)C(c3ccc(OCc4ccccc4)cc3)C2)cc1 (stereo unspecified)
inactive |  | 5.17 |  | CC(=O)N1N=C(c2ccc(S(C)(=O)=O)cc2)CC1c1ccc(C)cc1 (stereo unspecified)
inactive |  | 4.71 |  | CC(=O)N1N=C(c2ccc(S(C)(=O)=O)cc2)CC1c1ccc(F)cc1 (stereo unspecified)
inactive |  |  | inactive | CS(=O)(=O)c1ccc(C2=NN(C(N)=S)C(c3ccccc3OCc3ccccc3)C2)cc1 (stereo unspecified)
inactive |  |  | inactive | CS(=O)(=O)c1ccc(C2=NN(C(N)=S)C(c3ccc(C(F)(F)F)cc3)C2)cc1 (stereo unspecified)
inactive |  | 4.50 |  | Cc1ccc(C2CC(c3ccc(S(C)(=O)=O)cc3)=NN2C(N)=S)cc1 (stereo unspecified)
inactive |  | 4.70 |  | CC(=O)N1N=C(c2ccc(S(C)(=O)=O)cc2)CC1c1ccc(C(F)(F)F)cc1 (stereo unspecified)
inactive |  | 5.49 |  | CC(=O)N1N=C(c2ccc(S(C)(=O)=O)cc2)CC1c1ccccc1OCc1ccccc1 (stereo unspecified)
inactive | inactive |  |  | CC(=O)N1N=C(c2ccc(S(C)(=O)=O)cc2)CC1c1cccc(OCc2ccccc2)c1 (stereo unspecified)
inactive |  | 5.03 |  | CS(=O)(=O)c1ccc(C2=NN(C(N)=S)C(c3ccc(Cl)cc3)C2)cc1 (stereo unspecified)
inactive |  | 5.12 |  | COc1ccc(C2CC(c3ccc(S(C)(=O)=O)cc3)=NN2C(C)=O)cc1 (stereo unspecified)
